The supplement of paper PMC10307832

Key:
Experiment in all cases: relative viability (nuclei count vs DMSO), 5 days (fraction); higher = more cells survive
[1] = compound: COC1=CC=C(C=C1)CN2C=CC3=C2C=C(C=C3)C(=O)NO + O=C(CCCCCCC(=O)Nc1ccccc1)NO [Vorinostat] (partner 1 µM)
Procedure, shortened: (§1)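 Dosing by pin tool came one day after lung cancer cell lines were seeded in 1536-well plates, using either one drug or a fixed anchor-drug dose plus five library-drug doses (not always all listed) in √10 steps. After 5 days, nuclei were counted on 4× images. Relative viability is treated-well nuclei count divided by vehicle-well nuclei count, and values are medians of duplicate plates.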

Veliparib + AZD7762 = compound: C[C@]1(c2nc3c(C(N)=O)cccc3[nH]2)CCCN1 [Veliparib] + NC(=O)Nc1cc(-c2cccc(F)c2)sc1C(=O)N[C@H]1CCCNC1 [AZD7762] (partner 0.2 µM)
Procedure, shortened: as §1

[2] = compound: COC1=CC=C(C=C1)CN2C=CC3=C2C=C(C=C3)C(=O)NO + CC(C)C[C@H](NC(=O)[C@H](Cc1ccccc1)NC(=O)c1cnccn1)B(O)O [Bortezomib] (partner 0.002 µM)
Procedure, shortened: as §1

Veliparib + Phenformin = compound: C[C@]1(c2nc3c(C(N)=O)cccc3[nH]2)CCCN1 [Veliparib] + N=C(N)NC(=N)NCCc1ccccc1 [Phenformin] (partner 250 µM)
Procedure, shortened: as §1

Cell Line | relative viability ([1]; first compound 0.08 µM) | relative viability ([1]; first compound 0.253 µM) | relative viability ([1]; first compound 0.8 µM) | relative viability ([1]; first compound 2.53 µM) | relative viability ([1]; first compound 8 µM) | relative viability (Veliparib + AZD7762; first compound 0.06325 µM) | relative viability (Veliparib + AZD7762; first compound 0.2 µM) | relative viability (Veliparib + AZD7762; first compound 0.6325 µM) | relative viability (Veliparib + AZD7762; first compound 2 µM) | relative viability ([2]; first compound 0.08 µM) | relative viability ([2]; first compound 0.253 µM) | relative viability ([2]; first compound 0.8 µM) | relative viability ([2]; first compound 2.53 µM) | relative viability ([2]; first compound 8 µM) | relative viability (Veliparib + Phenformin; first compound 0.02 µM) | relative viability (Veliparib + Phenformin; first compound 0.06325 µM) | relative viability (Veliparib + Phenformin; first compound 0.2 µM) | relative viability (Veliparib + Phenformin; first compound 0.6325 µM) | relative viability (Veliparib + Phenformin; first compound 2 µM) | relative viability (Veliparib + AZD7762; first compound 0.02 µM)
EKVX | 0.646 | 0.843 | 0.803 | 0.897 | 0.672 | 0.731 | 0.833 | 0.728 | 0.806 | 1.03 | 0.762 | 1.16 | 1.08 | 1.21 | 0.194 | 0.162 | 0.249 | 0.221 | 0.222 | 
CAL-12T | 0.562 | 0.855 | 0.821 | 0.719 | 0.787 | 0.591 | 0.661 | 0.627 | 0.741 | 0.987 |  | 1.06 | 1.06 | 0.862 | 0.436 | 0.617 | 0.537 | 0.54 | 0.53 | 0.668
SW 900 | 0.477 | 0.334 | 0.441 | 0.733 | 0.358 | 0.575 | 0.526 | 0.59 | 0.591 |  |  |  |  |  |  |  | 0.679 | 0.504 | 0.508 | 
NCI-H522 |  | 0.982 | 1.03 | 0.909 | 0.845 | 0.896 | 0.846 | 0.87 | 0.873 |  |  |  |  |  | 0.683 | 0.664 | 0.667 | 0.583 | 0.802 | 0.805
A549 |  |  |  |  |  |  |  |  |  |  |  |  |  |  |  | 0.209 | 0.166 | 0.143 | 0.185 | 
NCI-H1563 |  |  |  |  |  |  |  |  |  | 0.788 | 0.916 | 0.95 | 0.839 | 0.69 | 0.594 | 0.638 | 0.686 | 0.643 | 0.667 | 
NCI-H2023 | 0.256 | 0.631 | 0.619 | 0.647 | 0.654 |  |  |  |  | 0.728 | 1.05 | 0.944 | 1.03 | 0.878 | 0.39 | 0.417 | 0.39 | 0.384 | 0.411 | 
COR-L23 | 0.273 | 0.456 | 0.455 | 0.518 | 0.502 |  |  |  |  | 0.93 | 0.996 | 1.08 | 1.03 | 0.922 | 0.409 | 0.373 | 0.4 | 0.407 | 0.425 | 
NCI-H2009 | 0.498 | 0.751 | 0.722 | 0.75 | 0.708 |  |  |  |  | 0.771 | 0.967 | 0.958 | 0.975 | 0.84 | 0.455 | 0.452 | 0.483 | 0.457 | 0.473 | 
EBC-1 |  |  |  |  |  |  |  |  |  | 0.574 | 0.496 | 0.532 | 0.54 | 0.44 |  |  |  |  |  | 
NCI-H661 |  | 0.807 | 0.717 | 0.747 | 0.639 |  |  |  |  |  | 0.811 | 0.649 | 0.843 | 0.715 | 0.299 | 0.289 | 0.25 | 0.274 | 0.264 | 
IA-LM | 0.801 |  | 0.971 | 1.05 | 0.961 |  |  |  |  | 0.857 | 0.69 | 0.942 | 0.769 | 0.726 |  |  |  |  |  | 
NCI-H1944 |  | 0.677 | 0.577 | 0.603 | 0.399 | 0.592 | 0.504 | 0.511 | 0.529 |  |  |  |  |  | 0.211 | 0.188 | 0.207 | 0.197 | 0.204 | 0.521
SK-MES-1 | 1.04 | 1.14 | 1.04 | 1.08 | 1.05 |  |  |  |  |  |  |  |  |  | 0.707 | 0.626 | 0.628 | 0.599 | 0.663 | 
NCI-H1648 | 0.373 | 0.515 | 0.337 | 0.528 | 0.406 |  |  | 0.711 | 0.685 |  |  |  |  |  |  |  |  |  |  | 0.762
NCI-H2228 | 0.496 | 0.869 | 0.639 | 0.431 | 0.826 |  |  |  |  | 1.22 | 1.03 | 0.93 | 1.18 | 0.863 | 0.209 | 0.301 | 0.276 | 0.284 | 0.236 | 
COR-L 105 | 0.489 | 0.802 | 0.828 | 0.815 | 0.63 |  |  |  |  |  | 0.741 | 0.654 | 0.625 | 0.277 | 0.386 | 0.464 | 0.504 | 0.492 | 0.451 | 
NCI-H1703 |  |  |  |  |  | 0.11 | 0.112 | 0.138 | 0.13 | 0.322 | 0.403 | 0.327 | 0.32 | 0.26 |  |  |  |  |  | 0.0963
NCI-H2342 | 0.591 | 0.738 | 0.694 | 0.701 | 0.788 | 0.543 | 0.417 | 0.471 | 0.405 |  |  |  |  |  | 0.583 | 0.589 | 0.506 | 0.579 | 0.587 | 0.392
NCI-H1299 |  |  |  |  |  |  |  |  |  | 0.994 | 1.06 | 1.04 | 1.03 | 1.03 |  |  |  |  |  | 
NCI-H358 |  | 0.721 | 0.703 | 0.606 | 0.528 | 0.487 | 0.671 | 0.552 | 0.676 |  |  |  |  |  | 0.226 | 0.316 | 0.337 | 0.32 | 0.351 | 
LK-2 | 0.172 | 0.291 | 0.282 | 0.308 | 0.221 | 0.367 | 0.461 | 0.465 | 0.492 |  |  |  |  |  |  | 0.516 | 0.594 | 0.543 | 0.481 | 0.32
SK-LU-1 | 0.527 | 0.753 | 0.771 | 0.718 | 0.691 |  |  |  |  |  | 1.08 | 1.58 | 1.14 | 0.817 | 0.588 | 0.524 | 0.544 | 0.512 | 0.506 | 
UMC-11 | 0.149 | 0.467 | 0.428 | 0.375 | 0.506 |  |  |  |  | 0.665 | 0.668 | 0.809 | 0.67 | 0.634 | 0.334 | 0.316 | 0.312 | 0.284 | 0.314 | 
NCI-H1650 | 0.354 | 0.557 | 0.595 | 0.684 | 0.532 |  |  |  |  | 0.17 | 0.174 | 0.208 | 0.211 | 0.195 |  | 0.473 | 0.519 | 0.404 | 0.34 | 
NCI-H2170 | 0.76 | 0.958 | 0.799 | 0.787 | 0.713 | 0.904 | 0.786 | 0.829 | 0.734 |  |  |  |  |  | 0.472 | 0.41 | 0.415 | 0.401 | 0.459 | 0.849
Calu-6 |  |  |  |  |  |  |  |  |  | 1.07 | 0.979 | 0.968 | 0.953 | 0.871 |  |  |  |  |  | 
